Earlier results on two compounds are cited in patent US20020137728A1, “Topical oral care compositions” (Oraceutical LLC, priority 2001, published 2002).

Where only a bound is given, the exact number is not on record here.

The subject of series [1] is serum alkaline phosphatase enzyme. The following applies: single dose intraperitoneally, Wistar rats with artificially induced periodontal lesions.
The conditions of series [2]: peroxide tooth whitening composition on tooth surface.

As to `O=C1O[C@H]([C@@H](O)CO)C(O)=C1O` [ascorbic acid], the “serum alkaline phosphatase enzyme” value in series [1] was “increase”.
Take `OO` [hydrogen peroxide]: the “time to reach vital pulp tissue from initial contact on the tooth surface” value in series [2] was not above 15 min.
